This note sets out measurements from article PMC11923649, “Novel C-2 Aromatic Heterocycle-Substituted Triterpenoids Inhibit Hedgehog Signaling in GLI1 Overexpression Cancer Cells” (ACS Omega, 2025).

Each structure is given as a SMILES string. Some results are limits rather than exact numbers.

Assay [1] relates to K562 (chronic myelogenous leukemia). The assay can be described thus: MTS cytotoxicity assay, 72 h, K562. Type of assay: cell-based. The settings on record: Homo sapiens, full Table S1. How it is done:
(§1) Based on the preliminary results and tests of a larger library of known triterpenoids, a small set of 2-substituted lupane and 18α-oleanane derivatives was designed and synthesized. As the first step, the cytotoxic activity of the synthesized derivatives was assessed using an MTS assay following 72 h of treatment (Table 1). Selected cell lines A549 (lung adenocarcinoma) and DU-145 (prostate cancer) are both dependent on Hh signaling. In addition, K562 (chronic myelogenous leukemia) was included as a cell line sensitive to Hh inhibitors[32] and a type of hematological malignancy with active Hh signaling.[33] MRC-5 lung fibroblasts and BJ human skin fibroblasts cell lines were used to evaluate the toxicity against nontumor cells. Compounds were also tested using the standard panel of other cancer cell lines, as described in our earlier work (Table 1).[27]
(§2) The human prostate tumor-derived cell line DU145 was obtained from ATCC (American Type Culture Collection) and cultured in RPMI 1640 (Roswell Park Memorial Institute) medium supplemented with 10% (v/v) fetal bovine serum (FBS). Human prostate tumor-derived LNCaP cells were obtained from ATCC and cultured in RPMI 1640 medium supplemented with 10% FBS. The human nonsmall cell lung carcinoma (NSCLC)-derived cell line HOP-62 was obtained from the DSMZ (German Collection of Microorganisms and Cell Cultures) and cultured in RPMI 1640 medium supplemented with 10% FBS. The human nonsmall cell lung carcinoma-derived cell line NCI-H322 was obtained from ECACC (European Collection of Authenticated Cell Cultures) and cultured in RPMI 1640 medium supplemented with 10% FBS. The human nonsmall cell lung carcinoma-derived cell line NCI-H522 was obtained from ATCC and cultured in RPMI 1640 medium supplemented with 10% FBS. The human lung tumor-derived cell line A549 was obtained from ATCC and cultured in Dulbecco’s Modified Eagle’s Medium (DMEM) supplemented with 10% FBS. The human medulloblastoma-derived cell line DAOY was obtained from ATCC and cultured in Eagle’s Minimum Essential Medium (EMEM) supplemented with 10% FBS. The human glioblastoma-derived cell line T98G was obtained from ATCC and cultured in EMEM medium supplemented with 10% FBS, 1 mmol/L sodium pyruvate, and 1 mmol/L nonessential amino acid mixture. All the above-mentioned cell lines were cultured at 37 °C in an atmosphere of 5% CO2 with 95% humidity. The cytotoxicity MTS assays were performed using MTS (3-(4,5-dimethylthiazol-2-yl)-5-(3-carboxymethoxyphenyl)-2-(4-sulfophenyl)-2H-tetrazolium) tetrazolium salt. Briefly, cells were seeded in a 384-well transparent plate in a volume of 25 μL and a concentration of 15,000 cells/mL (DU145, LNCaP, HOP-62, A549, DAOY, T98G) or 30,000 cells/mL (NCI-H322, NCI-H522). The next day, cells were exposed to compounds in a concentration range of 50–0.0975 μmol/L (dilution factor 2) and cultured in the presence of the compounds for 72 h. After 72 h, 5 μL of MTS/phenazine methosulfate solution was pipetted into each well and incubation continued for 1–4 h. Finally, the absorbance at 490 nm was measured using an EnVision multifunctional modular reader (PerkinElmer). The IC50 value was determined using Dotmatics software.

In another assay the test system is CEM-DNR. The assay can be described thus: MTS cytotoxicity assay, 72 h, CEM-DNR. In kind it is cell-based. The conditions noted are these: Homo sapiens, full Table S1. The procedure:
as §1, with “1).[27] […]” for “1).[27]”

The test system of another assay is U2OS. The assay can be described thus: MTS cytotoxicity assay, 72 h, U2OS. In kind it is cell-based. The settings on record: Homo sapiens, full Table S1. The procedure:
as §1, §2

For assay [2], the system named is BJ human skin fibroblasts. The assay can be described thus: MTS cytotoxicity assay, 72 h, BJ fibroblasts. In kind it is cell-based. The conditions noted are these: Homo sapiens, Skin fibroblast, normal fibroblasts, full Table S1. How it is done: as §1, §2
The test system of another assay is HCT 116. The assay can be described thus: MTS cytotoxicity assay, 72 h, HCT 116. The settings on record: Homo sapiens, HCT-116, 72 h, full Table S1. In kind it is cell-based. How it is done: as §1, §2
Another assay concerns HCT116 p53–/–. The assay can be described thus: MTS cytotoxicity assay, 72 h, HCT116 p53–/–. The conditions noted are these: Homo sapiens, HCT-116, 72 h, full Table S1. In kind it is cell-based. The procedure: as §1, §2
The test system of a further assay is K562-TAX. The assay can be described thus: MTS cytotoxicity assay, 72 h, K562-TAX. Type of assay: cell-based. The settings on record: full Table S1. The procedure: as §1, §2
Another assay concerns DU-145 (prostate cancer). The assay can be described thus: MTS cytotoxicity assay, 72 h, DU-145. The settings on record: Homo sapiens, DU-145, 72 h, full Table S1. Type of assay: cell-based, human. How it is done:
as §1, §2

Another assay deals with MRC-5 lung fibroblasts. The assay can be described thus: MTS cytotoxicity assay, 72 h, MRC-5 fibroblasts. Type of assay: cell-based, human. The conditions noted are these: Homo sapiens, MRC5, 72 h, normal fibroblasts, full Table S1. The procedure:
as §1, §2

Assay [3] relates to A549 (lung adenocarcinoma). The assay can be described thus: MTS cytotoxicity assay, 72 h, A549. The settings on record: Homo sapiens, A549, 72 h, full Table S1. Type of assay: cell-based. The procedure: as §1, §2
A further assay relates to CCRF-CEM. The assay can be described thus: MTS cytotoxicity assay, 72 h, CCRF-CEM. In kind it is cell-based. The conditions noted are these: full Table S1; for SI (selectivity index): CCRF-CEM vs average of BJ and MRC-5; for IC50: Homo sapiens, CCRF-CEM, 72 h, MTS. How it is done:
as §1, §2

Take `C=C(C)[C@@H]1CC[C@]2(C(=O)OCc3ccccc3)CC[C@]3(C)C(CCC4[C@@]5(C)C=C(c6ccc(Cl)s6)C(=O)C(C)(C)C5CC[C@]43C)C12` (stereo partly drawn) [Compound 10e]: the IC50 (in assay [1]; with CEM-DNR; in the assay with U2OS; in [2]; with HCT 116; in the assay with HCT116 p53–/–) was over 50 µM in each case. The IC50 (in the assay on K562-TAX; in the assay on DU-145 (prostate cancer); in the assay on MRC-5 lung fibroblasts; in [3]; in the assay on CCRF-CEM) was over 50 µM in each case. In addition, the “SI (selectivity index)” value in the assay with CCRF-CEM is on record as over 1.0.

For the molecule `C=C(C)[C@@H]1CC[C@]2(C(=O)OCc3ccccc3)CC[C@]3(C)C(CCC4[C@@]5(C)C=C(c6cccnc6)C(=O)C(C)(C)C5CC[C@]43C)C12` (stereo partly drawn) [Compound 10g, Benzyl 2-(3-Pyridinyl)-3-oxolupa-1,20(29)-dien-28-oate], the IC50 (in assay [1]; in the assay with CEM-DNR; in the assay on U2OS; in assay [2]; with HCT 116; with HCT116 p53–/–) was over 50 µM each time. The IC50 (in the assay with K562-TAX; in the assay with DU-145 (prostate cancer); in the assay on MRC-5 lung fibroblasts; in assay [3]; in the assay on CCRF-CEM) was over 50 µM in each case. Moreover, the “SI (selectivity index)” value in the assay with CCRF-CEM is given as over 1.0.

For `C=C(C)[C@@H]1CC[C@]2(C(=O)OCc3ccccc3)CC[C@]3(C)C(CCC4[C@@]5(C)C=C(c6ccncc6)C(=O)C(C)(C)C5CC[C@]43C)C12` (stereo partly drawn) [Compound 10h, Benzyl 2-(4-Pyridinyl)-3-oxolupa-1,20(29)-dien-28-oate], the IC50 (in [1]; in the assay on CEM-DNR; in the assay on U2OS; in assay [2]; in the assay with HCT 116; in the assay on HCT116 p53–/–) was over 50 µM in each case. The IC50 (in the assay on K562-TAX; with DU-145 (prostate cancer); in the assay with MRC-5 lung fibroblasts; in [3]; with CCRF-CEM) was over 50 µM in each case. For the same molecule, the “SI (selectivity index)” value in the assay on CCRF-CEM is recorded as over 1.0.

As for `C=C(C)[C@@H]1CC[C@]2(C(=O)OCc3ccccc3)CC[C@]3(C)C(CCC4[C@@]5(C)C=C(c6cncnc6)C(=O)C(C)(C)C5CC[C@]43C)C12` (stereo partly drawn) [Compound 10i, Benzyl 2-(5-Pyrimidinyl)-3-oxolupa-1,20(29)-dien-28-oate], the IC50 (in assay [1]; with CEM-DNR; with U2OS; in assay [2]; with HCT 116; in the assay on HCT116 p53–/–) was over 50 µM in each case. Moreover, the IC50 (in the assay on K562-TAX; with DU-145 (prostate cancer); with MRC-5 lung fibroblasts; in [3]; in the assay with CCRF-CEM) was over 50 µM each time. The “SI (selectivity index)” value with CCRF-CEM was over 1.0.

Consider `C=C(C)[C@@H]1CC[C@]2(C(=O)OCc3ccccc3)CC[C@]3(C)C(CCC4[C@@]5(C)C=C(c6ccc7c(c6)OCCO7)C(=O)C(C)(C)C5CC[C@]43C)C12` (stereo partly drawn) [Compound 10j, Benzyl 2-(1,4-Benzodioxan)-3-oxolupa-1,20(29)-dien-28-oate], for which the IC50 (in [1]; with CEM-DNR; in the assay on U2OS; in [2]; with HCT 116; with HCT116 p53–/–) was over 50 µM in each case. The IC50 (with K562-TAX; with DU-145 (prostate cancer); in the assay with MRC-5 lung fibroblasts; in assay [3]; in the assay with CCRF-CEM) was over 50 µM in each case. The “SI (selectivity index)” value in the assay with CCRF-CEM is on record as over 1.0.

Regarding `C=C(C)[C@@H]1CC[C@]2(C(=O)OCc3ccccc3)CC[C@]3(C)C(CCC4[C@@]5(C)C=C(c6cc7ccccc7s6)C(=O)C(C)(C)C5CC[C@]43C)C12` (stereo partly drawn) [Compound 10k, Benzyl 2-(Benzo[b]thien-2-yl)-3-oxolupa-1,20(29)-dien-28-oate], the IC50 (in assay [1]; with CEM-DNR; in the assay on U2OS; in assay [2]; with HCT 116; with HCT116 p53–/–) was over 50 µM each time. Further, the IC50 (with K562-TAX; in the assay on DU-145 (prostate cancer); in the assay with MRC-5 lung fibroblasts; in assay [3]; in the assay on CCRF-CEM) was over 50 µM each time. The “SI (selectivity index)” value in the assay with CCRF-CEM is on record as over 1.0.

Take `C=C(C)[C@@H]1CC[C@]2(C(=O)OCc3ccccc3)CC[C@]3(C)C(CCC4[C@@]5(C)C=C(c6cncc7ccccc67)C(=O)C(C)(C)C5CC[C@]43C)C12` (stereo partly drawn) [Compound 10l, Benzyl 2-(4-Isoquinoline)-3-oxolupa-1,20(29)-dien-28-oate]: the IC50 (in [1]; with CEM-DNR; with U2OS; in assay [2]; with HCT 116; with HCT116 p53–/–) was over 50 µM in each case. Further, the IC50 (in the assay on K562-TAX; with DU-145 (prostate cancer); with MRC-5 lung fibroblasts; in assay [3]; in the assay on CCRF-CEM) was over 50 µM in each case. The “SI (selectivity index)” value in the assay with CCRF-CEM is over 1.0.

Regarding `C=C(C)[C@@H]1CC[C@]2(C(=O)OCc3ccccc3)CC[C@]3(C)C(CCC4[C@@]5(C)C=C(c6ccc7[nH]ccc7c6)C(=O)C(C)(C)C5CC[C@]43C)C12` (stereo partly drawn) [Compound 10m, Benzyl 2-(Indol-5-yl)-3-oxolupa-1,20(29)-dien-28-oate], the concentration for half-maximal inhibition (IC50) (in [1]; in the assay with CEM-DNR; in the assay on U2OS; in assay [2]; in the assay on HCT 116; in the assay on HCT116 p53–/–) was over 50 µM in each case. The IC50 (in the assay on K562-TAX; in the assay with DU-145 (prostate cancer); in the assay with MRC-5 lung fibroblasts; in assay [3]; in the assay on CCRF-CEM) was over 50 µM each time. Besides, the “SI (selectivity index)” value with CCRF-CEM is recorded as over 1.0.

As for `C=C(C)[C@@H]1CC[C@]2(C(=O)OCc3ccccc3)CC[C@]3(C)C(CCC4[C@@]5(C)C=C(c6ccc7cn[nH]c7c6)C(=O)C(C)(C)C5CC[C@]43C)C12` (stereo partly drawn) [Compound 10n, Benzyl 2-(Indazol-6-yl)-3-oxolupa-1,20(29)-dien-28-oate], the IC50 (in assay [1]; with CEM-DNR; with U2OS; in assay [2]; in the assay on HCT 116; with HCT116 p53–/–) was over 50 µM throughout. Besides, the IC50 (in the assay with K562-TAX; with DU-145 (prostate cancer); in the assay on MRC-5 lung fibroblasts; in [3]; with CCRF-CEM) was over 50 µM each time. Also, the “SI (selectivity index)” value with CCRF-CEM is given as over 1.0.
